Source: patent US12384813B2, “Polymer linked multimers of guanosine-3′, 5′-cyclic monophosphates” (MIRECA MEDICINES GMBH, priority 2016, dated 2025)
Values belong to the compound of their own block, whether it stands above or below them.

Experiments:
PKG Iα = molecular target: T1, PKG Iα (Homo sapiens, UniProt Q13976); details: cited from earlier work
T1 sequence (Q13976 1-671): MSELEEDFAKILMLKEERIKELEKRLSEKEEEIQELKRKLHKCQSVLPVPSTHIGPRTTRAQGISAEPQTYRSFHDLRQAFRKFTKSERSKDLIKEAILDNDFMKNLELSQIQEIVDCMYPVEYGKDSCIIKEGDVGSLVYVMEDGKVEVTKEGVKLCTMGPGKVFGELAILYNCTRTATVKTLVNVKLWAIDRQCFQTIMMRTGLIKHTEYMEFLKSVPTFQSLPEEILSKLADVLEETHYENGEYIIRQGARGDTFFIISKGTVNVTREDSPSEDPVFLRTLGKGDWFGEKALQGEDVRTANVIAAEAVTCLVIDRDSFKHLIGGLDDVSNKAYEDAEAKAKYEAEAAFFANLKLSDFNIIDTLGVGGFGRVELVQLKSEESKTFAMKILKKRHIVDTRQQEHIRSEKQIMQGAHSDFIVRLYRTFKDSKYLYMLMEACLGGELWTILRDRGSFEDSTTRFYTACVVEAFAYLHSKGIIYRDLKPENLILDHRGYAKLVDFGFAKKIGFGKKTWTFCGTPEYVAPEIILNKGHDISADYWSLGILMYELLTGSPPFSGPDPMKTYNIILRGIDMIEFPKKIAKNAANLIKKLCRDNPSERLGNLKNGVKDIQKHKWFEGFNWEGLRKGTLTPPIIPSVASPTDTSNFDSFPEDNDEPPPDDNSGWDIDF

PKG Iβ = molecular target: T2, PKG Iβ (Homo sapiens, UniProt Q13976); assay: In vitro activation of PKG Iβ, ADP-Glo Kinase Assay (luminescence), VASPtide substrate; format: biochemical; details: compound lacking PET moiety vs compound 5
T2 construct: made in house; host or cells: Sf9 cells
T2 sequence (Q13976 1-686 isoform Q13976-2): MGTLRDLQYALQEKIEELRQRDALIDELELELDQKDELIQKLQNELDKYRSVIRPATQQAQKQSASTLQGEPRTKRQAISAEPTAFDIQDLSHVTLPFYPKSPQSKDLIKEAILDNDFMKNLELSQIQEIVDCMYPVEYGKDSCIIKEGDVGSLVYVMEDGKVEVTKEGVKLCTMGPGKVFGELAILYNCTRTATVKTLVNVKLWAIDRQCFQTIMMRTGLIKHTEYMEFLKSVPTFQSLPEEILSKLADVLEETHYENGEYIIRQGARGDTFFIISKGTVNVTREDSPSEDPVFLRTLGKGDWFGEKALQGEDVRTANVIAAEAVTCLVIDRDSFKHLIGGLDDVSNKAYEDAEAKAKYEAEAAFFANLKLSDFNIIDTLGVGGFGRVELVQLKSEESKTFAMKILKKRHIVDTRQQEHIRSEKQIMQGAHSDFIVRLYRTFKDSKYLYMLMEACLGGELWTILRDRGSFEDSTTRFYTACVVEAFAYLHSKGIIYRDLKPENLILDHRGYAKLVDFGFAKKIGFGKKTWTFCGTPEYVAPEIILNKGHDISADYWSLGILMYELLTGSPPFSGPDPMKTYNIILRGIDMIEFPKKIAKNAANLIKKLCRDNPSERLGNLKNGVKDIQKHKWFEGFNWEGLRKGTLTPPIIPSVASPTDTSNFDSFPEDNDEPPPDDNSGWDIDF

PKG II = molecular target: T3, PKG II (Homo sapiens, UniProt Q13237); assay: In vitro activation of PKG II, ADP-Glo Kinase Assay (luminescence), VASPtide substrate; details: compound lacking PET moiety vs compound 5
T3 sequence (Q13237 1-762): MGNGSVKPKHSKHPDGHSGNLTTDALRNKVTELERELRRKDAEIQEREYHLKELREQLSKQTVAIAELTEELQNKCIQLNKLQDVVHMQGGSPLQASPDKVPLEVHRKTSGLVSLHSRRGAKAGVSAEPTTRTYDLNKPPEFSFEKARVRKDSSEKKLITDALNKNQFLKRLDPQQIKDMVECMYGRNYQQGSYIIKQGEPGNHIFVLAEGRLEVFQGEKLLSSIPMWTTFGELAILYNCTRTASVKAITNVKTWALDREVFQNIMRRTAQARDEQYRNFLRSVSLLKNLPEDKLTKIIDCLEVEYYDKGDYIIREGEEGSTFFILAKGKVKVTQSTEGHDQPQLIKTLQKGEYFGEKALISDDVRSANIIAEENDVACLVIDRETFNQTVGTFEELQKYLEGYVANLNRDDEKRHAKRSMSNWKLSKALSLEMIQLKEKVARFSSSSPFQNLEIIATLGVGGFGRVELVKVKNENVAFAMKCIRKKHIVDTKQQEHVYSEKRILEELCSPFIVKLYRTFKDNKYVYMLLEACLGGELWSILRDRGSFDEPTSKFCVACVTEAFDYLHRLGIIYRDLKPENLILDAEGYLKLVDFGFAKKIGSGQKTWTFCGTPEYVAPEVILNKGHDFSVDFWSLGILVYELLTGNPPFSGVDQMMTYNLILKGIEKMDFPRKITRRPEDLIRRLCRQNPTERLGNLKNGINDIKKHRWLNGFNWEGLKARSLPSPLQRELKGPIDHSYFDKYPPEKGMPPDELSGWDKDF

[1] = Water solubility of alkyl spacer PLDs; format: physicochemical; details: alkyl spacers with moderate size

Structure (SMILES): Nc1nc2c(nc(Sc3ccccc3N)n2[C@@H]2O[C@@H]3COP(=O)(O)O[C@H]3[C@H]2O)c(=O)[nH]1 [8-APT-cGMP, 8-(2-NH2-Ph-S)-cGMP]
PKG Iα activation potential compared to cGMP (literature) (PKG Iα): about 15 fold

Structure (SMILES): Nc1nc2c(nc(SCC(=O)NCCOCCOCCOCCOCCOCCOCCOCCOCCNC(=O)CSc3nc4c(=O)[nH]c(N)nc4n3C3OC4COP(=O)(O)OC4C3O)n2C2OC3COP(=O)(O)OC3C2O)c(=O)[nH]1 (stereo not shown) [compound 3, Guanosine-3′,5′-cyclic monophosphate-[8-thiomethylamido-(octaethoxy)-ethylamidomethylthio-8]-guanosine-3′,5′-cyclic monophosphate]
decrease of relative PKG Iβ activation compared to compound 5 (PKG Iβ): more than 51 fold
increase of relative PKG II activation compared to compound 5 (PKG II): 30 fold

water solubility [1]: sufficient water solubility
Structure (SMILES): Nc1nc2c(nc(SCCCCCCCCCCCCSc3nc4c(=O)[nH]c(N)nc4n3[C@@H]3OC4COP(=O)(O)O[C@H]4C3O)n2[C@@H]2OC3COP(=O)(O)O[C@H]3C2O)c(=O)[nH]1 (stereo partly shown) [compound 16, Guanosine-3′,5′-cyclic monophosphate-[8-thio(dodecanyl)-thio-8]-guanosine-3′,5′-cyclic monophosphate]
